Test results published in ChEMBL document CHEMBL5260810, “Inhibition of bromodomain-containing protein 9 for the prevention of epigenetically-defined drug resistance” (Bioorg Med Chem Lett, 2017).

Target: Adrenergic receptor alpha-1 (Rattus norvegicus) (UniProt P15823+P23944+P43140)
Experiment: Displacement of [3H]-prazosin from rat alpha1 adrenoceptor at 10 uM after 60 mins by scintillation counting analysis relative to control
Format: protein assay
Conditions: not given
`C/C=C/Cn1cc(-c2cc(OC)c(C(=O)N3CCOCC3)cc2OC)c2cc(C)[nH]c2c1=O` showed an Activity of 3%.

Target: Chromatin remodeling regulator CECR2 (Homo sapiens, UniProt Q9BXF3)
Sequence (Q9BXF3 whole entry, the tested form may be a part): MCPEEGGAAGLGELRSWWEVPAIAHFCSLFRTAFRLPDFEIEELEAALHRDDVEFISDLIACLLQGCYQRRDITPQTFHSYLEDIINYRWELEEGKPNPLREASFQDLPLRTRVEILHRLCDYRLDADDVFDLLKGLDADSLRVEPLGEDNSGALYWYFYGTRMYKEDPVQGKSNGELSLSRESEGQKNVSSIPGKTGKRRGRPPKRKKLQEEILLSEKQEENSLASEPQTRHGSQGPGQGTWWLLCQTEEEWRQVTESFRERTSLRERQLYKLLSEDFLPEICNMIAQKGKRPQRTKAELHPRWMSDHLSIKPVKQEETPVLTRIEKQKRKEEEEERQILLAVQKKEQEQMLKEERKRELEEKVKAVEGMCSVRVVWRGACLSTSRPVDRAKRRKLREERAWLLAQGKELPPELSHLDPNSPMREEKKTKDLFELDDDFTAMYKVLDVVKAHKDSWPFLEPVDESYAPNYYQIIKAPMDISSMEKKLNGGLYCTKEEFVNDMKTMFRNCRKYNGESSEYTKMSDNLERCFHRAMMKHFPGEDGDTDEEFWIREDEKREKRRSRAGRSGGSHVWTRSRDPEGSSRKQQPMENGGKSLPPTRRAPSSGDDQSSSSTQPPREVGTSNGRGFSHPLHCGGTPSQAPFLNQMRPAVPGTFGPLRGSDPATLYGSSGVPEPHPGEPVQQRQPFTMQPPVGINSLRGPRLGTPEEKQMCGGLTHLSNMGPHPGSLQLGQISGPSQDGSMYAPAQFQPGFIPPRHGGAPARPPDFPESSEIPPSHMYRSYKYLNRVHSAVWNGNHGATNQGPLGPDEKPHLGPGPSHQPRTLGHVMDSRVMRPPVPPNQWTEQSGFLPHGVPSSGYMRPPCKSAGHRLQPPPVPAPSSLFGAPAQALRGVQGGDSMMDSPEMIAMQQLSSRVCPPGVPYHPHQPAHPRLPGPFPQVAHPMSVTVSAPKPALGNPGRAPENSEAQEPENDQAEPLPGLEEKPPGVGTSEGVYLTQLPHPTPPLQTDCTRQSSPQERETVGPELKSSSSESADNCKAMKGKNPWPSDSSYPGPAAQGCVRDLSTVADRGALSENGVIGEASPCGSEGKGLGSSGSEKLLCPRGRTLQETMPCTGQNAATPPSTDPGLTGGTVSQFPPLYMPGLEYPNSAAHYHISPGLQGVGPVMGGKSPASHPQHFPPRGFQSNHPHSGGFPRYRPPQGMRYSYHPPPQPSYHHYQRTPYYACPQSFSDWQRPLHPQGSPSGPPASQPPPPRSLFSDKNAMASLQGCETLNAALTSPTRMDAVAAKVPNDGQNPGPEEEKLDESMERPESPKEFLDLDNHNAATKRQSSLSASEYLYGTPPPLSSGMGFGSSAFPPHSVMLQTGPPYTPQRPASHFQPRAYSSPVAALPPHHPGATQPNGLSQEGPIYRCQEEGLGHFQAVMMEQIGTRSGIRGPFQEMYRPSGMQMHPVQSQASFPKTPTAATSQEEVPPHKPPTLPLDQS
Experiment: Binding affinity to human partial length CECR2 (P423 to D543 residues) expressed in bacterial expression system by BROMOscan assay
Conditions: not given
`C/C=C/Cn1cc(-c2cc(OC)c(C(=O)N3CCOCC3)cc2OC)c2cc(C)[nH]c2c1=O` gave a Kd of 3600 nM.

Target: CREB-binding protein (Homo sapiens, UniProt Q92793)
Sequence (Q92793 whole entry, the tested form may be a part): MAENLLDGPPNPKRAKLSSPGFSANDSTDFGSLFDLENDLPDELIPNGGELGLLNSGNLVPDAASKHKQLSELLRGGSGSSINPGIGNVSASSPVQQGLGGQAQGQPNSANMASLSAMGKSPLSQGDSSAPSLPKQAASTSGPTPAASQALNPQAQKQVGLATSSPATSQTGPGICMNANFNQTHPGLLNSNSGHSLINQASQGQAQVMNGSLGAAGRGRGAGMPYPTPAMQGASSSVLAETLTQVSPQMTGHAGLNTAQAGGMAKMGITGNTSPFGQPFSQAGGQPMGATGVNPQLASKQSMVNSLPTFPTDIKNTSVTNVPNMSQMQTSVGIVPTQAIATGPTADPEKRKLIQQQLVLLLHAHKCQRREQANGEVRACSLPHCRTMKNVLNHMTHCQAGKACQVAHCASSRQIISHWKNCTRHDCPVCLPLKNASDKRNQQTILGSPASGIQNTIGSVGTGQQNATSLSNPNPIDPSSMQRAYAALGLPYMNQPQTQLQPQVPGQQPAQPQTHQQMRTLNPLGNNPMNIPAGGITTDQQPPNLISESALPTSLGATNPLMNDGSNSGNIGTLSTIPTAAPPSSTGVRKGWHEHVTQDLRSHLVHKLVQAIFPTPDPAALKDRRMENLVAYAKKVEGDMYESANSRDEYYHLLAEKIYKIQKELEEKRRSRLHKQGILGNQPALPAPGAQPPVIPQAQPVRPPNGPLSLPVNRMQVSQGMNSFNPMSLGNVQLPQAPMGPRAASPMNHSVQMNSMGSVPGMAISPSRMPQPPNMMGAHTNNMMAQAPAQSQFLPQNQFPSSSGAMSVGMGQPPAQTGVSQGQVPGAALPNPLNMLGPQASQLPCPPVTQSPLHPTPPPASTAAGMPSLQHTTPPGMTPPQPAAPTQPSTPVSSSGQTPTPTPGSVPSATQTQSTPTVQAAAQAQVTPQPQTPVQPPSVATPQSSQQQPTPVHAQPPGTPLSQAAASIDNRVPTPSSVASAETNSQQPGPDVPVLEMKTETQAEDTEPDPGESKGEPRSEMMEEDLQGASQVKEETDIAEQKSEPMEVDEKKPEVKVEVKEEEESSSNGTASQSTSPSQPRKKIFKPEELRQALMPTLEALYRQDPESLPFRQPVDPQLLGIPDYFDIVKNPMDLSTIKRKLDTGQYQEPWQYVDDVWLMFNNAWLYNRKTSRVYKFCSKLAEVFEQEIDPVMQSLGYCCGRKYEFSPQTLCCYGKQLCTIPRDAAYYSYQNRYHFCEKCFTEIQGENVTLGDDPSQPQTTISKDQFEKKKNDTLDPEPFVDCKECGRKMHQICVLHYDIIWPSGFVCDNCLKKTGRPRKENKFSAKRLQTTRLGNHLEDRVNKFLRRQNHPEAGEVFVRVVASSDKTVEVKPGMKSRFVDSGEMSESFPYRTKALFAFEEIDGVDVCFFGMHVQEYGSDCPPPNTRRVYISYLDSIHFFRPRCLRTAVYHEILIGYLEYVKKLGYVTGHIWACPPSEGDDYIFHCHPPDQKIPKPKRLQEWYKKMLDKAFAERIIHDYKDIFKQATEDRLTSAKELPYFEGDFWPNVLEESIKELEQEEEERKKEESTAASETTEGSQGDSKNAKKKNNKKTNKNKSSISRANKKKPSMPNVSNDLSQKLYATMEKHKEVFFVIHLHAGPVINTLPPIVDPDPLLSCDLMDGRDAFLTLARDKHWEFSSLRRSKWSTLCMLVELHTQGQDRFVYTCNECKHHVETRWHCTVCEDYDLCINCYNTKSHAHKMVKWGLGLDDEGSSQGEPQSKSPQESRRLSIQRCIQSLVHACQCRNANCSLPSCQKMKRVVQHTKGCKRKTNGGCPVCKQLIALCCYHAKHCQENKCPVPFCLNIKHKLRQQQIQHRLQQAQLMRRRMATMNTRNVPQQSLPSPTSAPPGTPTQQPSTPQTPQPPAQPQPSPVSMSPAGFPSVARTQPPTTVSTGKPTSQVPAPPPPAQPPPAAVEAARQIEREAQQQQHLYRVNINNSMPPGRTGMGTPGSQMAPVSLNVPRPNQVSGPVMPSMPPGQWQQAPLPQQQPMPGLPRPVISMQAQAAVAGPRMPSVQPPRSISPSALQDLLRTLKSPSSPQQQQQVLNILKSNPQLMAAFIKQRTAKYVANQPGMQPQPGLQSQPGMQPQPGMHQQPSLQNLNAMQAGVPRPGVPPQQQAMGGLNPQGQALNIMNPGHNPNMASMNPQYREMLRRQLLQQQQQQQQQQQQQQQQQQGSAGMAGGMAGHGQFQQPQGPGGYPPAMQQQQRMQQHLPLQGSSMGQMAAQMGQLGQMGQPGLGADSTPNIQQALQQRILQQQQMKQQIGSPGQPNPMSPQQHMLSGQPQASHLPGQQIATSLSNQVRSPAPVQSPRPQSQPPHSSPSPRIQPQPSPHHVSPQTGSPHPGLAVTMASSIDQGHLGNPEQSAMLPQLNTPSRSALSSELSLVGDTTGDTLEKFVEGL
Experiment: Binding affinity to human partial length CREBBP (R1081 to G1197 residues) expressed in bacterial expression system by BROMOscan assay
Conditions: not given
With `C/C=C/Cn1cc(-c2cc(OC)c(C(=O)N3CCOCC3)cc2OC)c2cc(C)[nH]c2c1=O` the Kd was over 10000 nM.

Tested on: NCI-H23
Experiment: Cytotoxicity against human NCI-H23 cells measured after 8 days
Format: functional, cell-based
Conditions: NCI-H23, 192 h
Work on `C/C=C/Cn1cc(-c2cc(OC)c(C(=O)N3CCOCC3)cc2OC)c2cc(C)[nH]c2c1=O` yielded an IC50 of 2000 nM.

Tested on: T47D
Experiment: Cytotoxicity against human T47D cells measured after 8 days
Format: functional, cell-based
Conditions: 192 h
`C/C=C/Cn1cc(-c2cc(OC)c(C(=O)N3CCOCC3)cc2OC)c2cc(C)[nH]c2c1=O` gave an IC50 of 2000 nM.

Tested on: IGR-37 cell line
Experiment: Cytotoxicity against human IGR-37 cell line measured after 8 days
Format: functional, cell-based
Conditions: IGR-37, 192 h
With `C/C=C/Cn1cc(-c2cc(OC)c(C(=O)N3CCOCC3)cc2OC)c2cc(C)[nH]c2c1=O` the IC50 was 2000 nM.

Tested on: not listed separately
Experiment: Cytotoxicity against human OVTOKO cells measured after 8 days
Format: functional, cell-based
Conditions: 192 h
`C/C=C/Cn1cc(-c2cc(OC)c(C(=O)N3CCOCC3)cc2OC)c2cc(C)[nH]c2c1=O` gave an IC50 of 2000 nM.

Tested on: not listed separately
Experiment: Cytotoxicity against human WSU-FSCCL cells measured after 8 days
Format: functional, cell-based
Conditions: 192 h
With `C/C=C/Cn1cc(-c2cc(OC)c(C(=O)N3CCOCC3)cc2OC)c2cc(C)[nH]c2c1=O` the IC50 was 810 nM.

Species on record: Homo sapiens
Experiment: Inhibition of JAK1alpha1 (unknown origin) at 1 uM relative to control
Conditions: not given
`C/C=C/Cn1cc(-c2cc(OC)c(C(=O)N3CCOCC3)cc2OC)c2cc(C)[nH]c2c1=O` gave an inhibition of -9.5%.

Target: Bromodomain-containing protein 2 (Homo sapiens, UniProt P25440)
Sequence (P25440 whole entry, the tested form may be a part, canonical isoform): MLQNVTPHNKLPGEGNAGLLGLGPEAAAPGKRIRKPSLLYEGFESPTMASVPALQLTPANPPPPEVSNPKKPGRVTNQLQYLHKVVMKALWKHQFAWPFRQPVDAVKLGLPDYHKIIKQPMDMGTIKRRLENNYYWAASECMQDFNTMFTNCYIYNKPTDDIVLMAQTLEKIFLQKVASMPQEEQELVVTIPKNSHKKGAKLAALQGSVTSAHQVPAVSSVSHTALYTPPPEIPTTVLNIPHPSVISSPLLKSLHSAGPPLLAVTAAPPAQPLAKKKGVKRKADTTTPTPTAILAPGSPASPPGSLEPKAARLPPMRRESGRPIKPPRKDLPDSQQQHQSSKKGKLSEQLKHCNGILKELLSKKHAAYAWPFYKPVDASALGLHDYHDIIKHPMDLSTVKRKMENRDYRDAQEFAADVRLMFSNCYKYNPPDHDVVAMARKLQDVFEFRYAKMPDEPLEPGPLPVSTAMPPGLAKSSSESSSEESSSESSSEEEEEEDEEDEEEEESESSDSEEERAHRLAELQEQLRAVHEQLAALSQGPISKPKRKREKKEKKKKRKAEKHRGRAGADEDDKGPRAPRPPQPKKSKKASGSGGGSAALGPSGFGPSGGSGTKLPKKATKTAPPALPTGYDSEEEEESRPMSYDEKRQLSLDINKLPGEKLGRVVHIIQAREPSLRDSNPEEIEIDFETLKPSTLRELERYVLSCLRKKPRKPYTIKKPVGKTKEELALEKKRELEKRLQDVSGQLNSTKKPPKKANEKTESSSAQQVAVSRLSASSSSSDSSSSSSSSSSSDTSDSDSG
Experiment: Binding affinity to human partial length BRD2 bromodomain 2 isoform 1 (E348 to D455 residues) expressed in bacterial expression system by BROMOscan assay
Conditions: not given
For `C/C=C/Cn1cc(-c2cc(OC)c(C(=O)N3CCOCC3)cc2OC)c2cc(C)[nH]c2c1=O`, the Kd was over 10000 nM.

Tested on: DAN-G
Experiment: Cytotoxicity against human DAN-G cells measured after 8 days
Format: functional, cell-based
Conditions: 192 h
In the case of `C/C=C/Cn1cc(-c2cc(OC)c(C(=O)N3CCOCC3)cc2OC)c2cc(C)[nH]c2c1=O`, the IC50 is reported as 2000 nM.

Tested on: not listed separately
Experiment: Cytotoxicity against human NCI-H2595 cells measured after 8 days
Format: functional, cell-based
Conditions: NCI-H2595, 192 h
Molecule `C/C=C/Cn1cc(-c2cc(OC)c(C(=O)N3CCOCC3)cc2OC)c2cc(C)[nH]c2c1=O` has an IC50 of 2000 nM.

Tested on: NCI-H520
Experiment: Cytotoxicity against human NCI-H520 cells measured after 8 days
Format: functional, cell-based
Conditions: NCI-H520, 192 h
Work on `C/C=C/Cn1cc(-c2cc(OC)c(C(=O)N3CCOCC3)cc2OC)c2cc(C)[nH]c2c1=O` yielded an IC50 of 2000 nM.

Tested on: not listed separately
Experiment: Cytotoxicity against human Ci-1 cells measured after 8 days
Format: functional, cell-based
Conditions: Ci-1, 192 h
`C/C=C/Cn1cc(-c2cc(OC)c(C(=O)N3CCOCC3)cc2OC)c2cc(C)[nH]c2c1=O` showed an IC50 of 2000 nM.

Tested on: HCC95
Experiment: Cytotoxicity against human HCC95 cells measured after 8 days
Format: functional, cell-based
Conditions: HCC95, 192 h
Work on `C/C=C/Cn1cc(-c2cc(OC)c(C(=O)N3CCOCC3)cc2OC)c2cc(C)[nH]c2c1=O` yielded an IC50 of 2000 nM.

Species on record: Rattus norvegicus
Experiment: Displacement of [125I]alpha-dendrotoxin from rat brain voltage-gated K channel at 10 uM after 60 mins by scintillation counting analysis relative to control
Conditions: not given
Molecule `C/C=C/Cn1cc(-c2cc(OC)c(C(=O)N3CCOCC3)cc2OC)c2cc(C)[nH]c2c1=O` has an Activity of 2%.

Tested on: NCI-H1155
Experiment: Cytotoxicity against human NCI-H1155 cells measured after 8 days
Format: functional, cell-based
Conditions: NCI-H1155, 192 h
With `C/C=C/Cn1cc(-c2cc(OC)c(C(=O)N3CCOCC3)cc2OC)c2cc(C)[nH]c2c1=O` the IC50 was 2000 nM.

Tested on: not listed separately
Experiment: Cytotoxicity against human SK-MEL-23 cells measured after 8 days
Format: functional, cell-based
Conditions: SK-MEL-23, 192 h
With `C/C=C/Cn1cc(-c2cc(OC)c(C(=O)N3CCOCC3)cc2OC)c2cc(C)[nH]c2c1=O` the IC50 was 2000 nM.

Tested on: not listed separately
Experiment: Cytotoxicity against human OCUM-1 cells measured after 8 days
Format: functional, cell-based
Conditions: OCUM1, 192 h
`C/C=C/Cn1cc(-c2cc(OC)c(C(=O)N3CCOCC3)cc2OC)c2cc(C)[nH]c2c1=O` gave an IC50 of 2000 nM.

Tested on: WSUDLCL2
Experiment: Cytotoxicity against human WSUDLCL2 cells measured after 8 days
Format: functional, cell-based
Conditions: WSUDLCL2, 192 h
For `C/C=C/Cn1cc(-c2cc(OC)c(C(=O)N3CCOCC3)cc2OC)c2cc(C)[nH]c2c1=O`, the IC50 was 2000 nM.

Tested on: not listed separately
Experiment: Cytotoxicity against human NCI-H1869 cells measured after 8 days
Format: functional, cell-based
Conditions: NCI-H1869, 192 h
Work on `C/C=C/Cn1cc(-c2cc(OC)c(C(=O)N3CCOCC3)cc2OC)c2cc(C)[nH]c2c1=O` yielded an IC50 of 2000 nM.

Target: T1, Muscle, skeletal receptor tyrosine-protein kinase (Homo sapiens) (UniProt O15146)
T1 sequence (whole entry): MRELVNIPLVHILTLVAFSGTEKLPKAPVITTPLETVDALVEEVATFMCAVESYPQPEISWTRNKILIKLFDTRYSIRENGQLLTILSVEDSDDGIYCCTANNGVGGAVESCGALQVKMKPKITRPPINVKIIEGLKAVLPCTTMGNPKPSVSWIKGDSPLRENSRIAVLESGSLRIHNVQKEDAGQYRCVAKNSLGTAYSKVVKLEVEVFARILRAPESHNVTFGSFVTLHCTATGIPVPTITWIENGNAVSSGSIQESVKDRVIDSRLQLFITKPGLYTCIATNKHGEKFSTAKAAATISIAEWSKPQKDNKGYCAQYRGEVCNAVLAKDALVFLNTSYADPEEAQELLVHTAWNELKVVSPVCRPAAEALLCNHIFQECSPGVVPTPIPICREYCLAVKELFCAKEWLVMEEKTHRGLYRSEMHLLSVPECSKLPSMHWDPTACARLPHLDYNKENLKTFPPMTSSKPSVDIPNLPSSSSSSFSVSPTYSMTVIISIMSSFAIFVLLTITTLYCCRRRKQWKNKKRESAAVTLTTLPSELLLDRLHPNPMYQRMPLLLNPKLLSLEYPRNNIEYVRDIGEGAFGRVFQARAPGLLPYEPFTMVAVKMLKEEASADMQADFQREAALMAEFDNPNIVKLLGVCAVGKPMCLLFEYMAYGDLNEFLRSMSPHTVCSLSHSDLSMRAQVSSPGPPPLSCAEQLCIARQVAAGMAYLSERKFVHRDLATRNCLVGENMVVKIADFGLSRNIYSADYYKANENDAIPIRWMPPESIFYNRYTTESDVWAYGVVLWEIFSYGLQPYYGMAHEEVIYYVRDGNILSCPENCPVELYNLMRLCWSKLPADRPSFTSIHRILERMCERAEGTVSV
Experiment: Inhibition of MuSK (unknown origin) at 1 uM relative to control
Conditions: not given
Work on `C/C=C/Cn1cc(-c2cc(OC)c(C(=O)N3CCOCC3)cc2OC)c2cc(C)[nH]c2c1=O` yielded an inhibition of 3%.

Tested on: PA-1
Experiment: Cytotoxicity against human PA-1 cells measured after 8 days
Format: functional, cell-based
Conditions: PA-1, 192 h
`C/C=C/Cn1cc(-c2cc(OC)c(C(=O)N3CCOCC3)cc2OC)c2cc(C)[nH]c2c1=O` gave an IC50 of 2000 nM.

Tested on: HEY
Experiment: Cytotoxicity against human HEY cells measured after 8 days
Format: functional, cell-based
Conditions: 192 h
For `C/C=C/Cn1cc(-c2cc(OC)c(C(=O)N3CCOCC3)cc2OC)c2cc(C)[nH]c2c1=O`, the IC50 was 2000 nM.

Tested on: BT-549
Experiment: Cytotoxicity against human BT-549 cells measured after 8 days
Format: functional, cell-based
Conditions: BT-549, 192 h
`C/C=C/Cn1cc(-c2cc(OC)c(C(=O)N3CCOCC3)cc2OC)c2cc(C)[nH]c2c1=O` showed an IC50 of 2000 nM.

Tested on: NCI-H441
Experiment: Cytotoxicity against human NCI-H441 cells measured after 8 days
Format: functional, cell-based
Conditions: NCI-H441, 192 h
Molecule `C/C=C/Cn1cc(-c2cc(OC)c(C(=O)N3CCOCC3)cc2OC)c2cc(C)[nH]c2c1=O` has an IC50 of 2000 nM.

Tested on: HCC1806
Experiment: Cytotoxicity against human HCC1806 cells measured after 8 days
Format: functional, cell-based
Conditions: HCC1806, 192 h
Work on `C/C=C/Cn1cc(-c2cc(OC)c(C(=O)N3CCOCC3)cc2OC)c2cc(C)[nH]c2c1=O` yielded an IC50 of 2000 nM.

Tested on: LoVo
Experiment: Cytotoxicity against human LoVo cells measured after 8 days
Format: functional, cell-based
Conditions: 192 h
`C/C=C/Cn1cc(-c2cc(OC)c(C(=O)N3CCOCC3)cc2OC)c2cc(C)[nH]c2c1=O` gave an IC50 of 2000 nM.

Tested on: KARPAS-422
Experiment: Cytotoxicity against human KARPAS-422 cells measured after 8 days
Format: functional, cell-based
Conditions: KARPAS-422, 192 h
For `C/C=C/Cn1cc(-c2cc(OC)c(C(=O)N3CCOCC3)cc2OC)c2cc(C)[nH]c2c1=O`, the IC50 was 2000 nM.

Tested on: NUGC-4
Experiment: Cytotoxicity against human NUGC-4 cells measured after 8 days
Format: functional, cell-based
Conditions: NUGC-4, 192 h
Molecule `C/C=C/Cn1cc(-c2cc(OC)c(C(=O)N3CCOCC3)cc2OC)c2cc(C)[nH]c2c1=O` has an IC50 of 2000 nM.

Tested on: HCC4006
Experiment: Cytotoxicity against human HCC4006 cells measured after 8 days
Format: functional, cell-based
Conditions: HCC4006, 192 h
With `C/C=C/Cn1cc(-c2cc(OC)c(C(=O)N3CCOCC3)cc2OC)c2cc(C)[nH]c2c1=O` the IC50 was 2000 nM.

Tested on: not listed separately
Experiment: Cytotoxicity against human NCI-H2373 cells measured after 8 days
Format: functional, cell-based
Conditions: NCI-H2373, 192 h
Molecule `C/C=C/Cn1cc(-c2cc(OC)c(C(=O)N3CCOCC3)cc2OC)c2cc(C)[nH]c2c1=O` has an IC50 of 2000 nM.

Tested on: CAL-120
Experiment: Cytotoxicity against human CAL-120 cells measured after 8 days
Format: functional, cell-based
Conditions: CAL-120, 192 h
In the case of `C/C=C/Cn1cc(-c2cc(OC)c(C(=O)N3CCOCC3)cc2OC)c2cc(C)[nH]c2c1=O`, the IC50 is reported as 2000 nM.

Tested on: MX1
Experiment: Cytotoxicity against human MX1 cells measured after 8 days
Format: functional, cell-based
Conditions: MX1, 192 h
In the case of `C/C=C/Cn1cc(-c2cc(OC)c(C(=O)N3CCOCC3)cc2OC)c2cc(C)[nH]c2c1=O`, the IC50 is reported as 2000 nM.

Tested on: not listed separately
Experiment: Cytotoxicity against human 501A cells measured after 8 days
Format: functional, cell-based
Conditions: 192 h
Work on `C/C=C/Cn1cc(-c2cc(OC)c(C(=O)N3CCOCC3)cc2OC)c2cc(C)[nH]c2c1=O` yielded an IC50 of 2000 nM.

Tested on: not listed separately
Experiment: Cytotoxicity against human PL-21 cells measured after 8 days
Format: functional, cell-based
Conditions: PL-21, 192 h
For `C/C=C/Cn1cc(-c2cc(OC)c(C(=O)N3CCOCC3)cc2OC)c2cc(C)[nH]c2c1=O`, the IC50 was 2000 nM.

Tested on: not listed separately
Experiment: Cytotoxicity against human GP2d cells measured after 8 days
Format: functional, cell-based
Conditions: 192 h
`C/C=C/Cn1cc(-c2cc(OC)c(C(=O)N3CCOCC3)cc2OC)c2cc(C)[nH]c2c1=O` showed an IC50 of 2000 nM.
